Measurements reported in publication PMC9375819 (EJNMMI Research, 2022).
Each block holds one compound with its values, some of them ahead of it.

Assays:
[1] = system: H1299 shATM and shGFP cells; assay: Cell uptake of [18F]1; format: cell-based, human; settings: irradiated 4 Gy or sham-irradiated, 37 °C
Method: (§1) H1299 non-small cell lung cancer cells, either wild type or stably transfected with short hairpin RNA for ATM (shATM) or GFP (shGFP, as a control) expression knockdown, were kindly gifted by Dr Anderson Ryan at the University of Oxford. All cells were cultured at 37 °C and 5% CO2 in Dulbecco’s modified Eagle medium (DMEM) supplemented with 10% foetal bovine serum (FBS) (Gibco, USA), 2 mM L-glutamine, 100 units/mL penicillin, and 100 µg/mL streptomycin (PSG) (Sigma-Aldrich); knockdown cell lines were additionally supplemented with 0.5 μg/mL puromycin dihydrochloride (Merck Life Science, UK). Cells were originally purchased from ATCC and were authenticated by the provider and by STR profiling. Cells were tested regularly for the absence of mycoplasma contamination and were cultured for a maximum of 20 passages after resuscitation from liquid nitrogen storage.
To assess cellular uptake of [^18F]1, aliquots of H1299 shATM or shGFP cells were plated with 1 × 10^5 cells per well in 24-well plates in 500 μL complete growth medium and incubated overnight to allow cells to adhere. Cell culture medium was removed, cells washed with PBS and media replaced with DMEM (no additives). […] The amount of ^18F-activity associated with each fraction was determined using a Wizard2 Automatic Gamma Counter (PerkinElmer).

[2] = system: H1299 shATM and shGFP cells; assay: Cell retention of [18F]1; format: cell-based, human; settings: after 1 h incubation with tracer, over 2 h
Method: as §1
Retention assays followed the same procedure with a 1-h incubation of cell with [^18F]1, but after culture medium was aspirated and cells washed with PBS (2 × 500 μL), it was replaced (500 μL DMEM) and cells incubated at 37 °C and 5% CO2 for the desired time. The amount of ^18F-activity retained in cells was then determined as above.

[3] = PET/CT imaging and ex vivo biodistribution in wild type and ATM-null mice; design: species or system C57BL/6 mice; settings: 1 h after intravenous administration
Method: (§2) All animal procedures were performed in accordance with the UK Animals (Scientific Procedures) Act 1986 and with local ethical committee approval. Mice were bred from parent C57BL/6 J mice heterozygous for a targeted mutation in the ATM^tm1Awbl allele to produce ATM-null (ATM^−/−) mice (Jackson laboratory). Wild-type (ATM^+/+) mice from this breeding program were used as controls. In a separate study, tumour xenografts were created in BALB/c nu/nu mice (8 weeks old) via subcutaneous injection of H1299 wild type, shATM knockdown, or shGFP knockdown cells in a 1:1 PBS/Matrigel® formulation on both sides of the hind flank. Total tumour volumes were allowed to reach an average of 600 mm^3 (range 330–930 mm^3) before imaging and/or biodistribution studies (approx. 6–10 weeks after inoculation).
Animals were anaesthetised by 4% isoflurane gas (0.5 L/min O2) and maintained at approx. 2% and 37 °C throughout the imaging session. C57BL/6 ATM^+/+ and ATM^−/− mice were administered [^18F]1 (83 ng; 0.5–4.6 MBq, molar activity range of 3.2–24.2 GBq/μmol with a standard deviation of 6.5 GBq/μmol) via intravenous bolus injection in the lateral tail vein. […] PET images were each registered to CT, attenuation corrected, calibrated by imaging a phantom containing a fluorine-18 standard solution, and analysed using PMod software package (version 3.807, PMOD Technologies).

[4] = Ex vivo biodistribution, uptake in H1299 tumour xenografts; design: species or system BALB/c nu/nu mice
Method: as §2
Animals were anaesthetised by 4% isoflurane gas (0.5 L/min O2) and maintained at approx. 2% and 37 °C throughout the imaging session. C57BL/6 ATM^+/+ and ATM^−/− mice were administered [^18F]1 (83 ng; 0.5–4.6 MBq, molar activity range of 3.2–24.2 GBq/μmol with a standard deviation of 6.5 GBq/μmol) via intravenous bolus injection in the lateral tail vein. Xenograft-bearing BALB/c nu/nu mice were administered [^18F]1 (0.5 μg; 0.7–9.6 MBq, molar activity range of 0.62–9.8 GBq/μmol with a standard deviation of 3.0 GBq/μmol) via intravenous bolus injection to the lateral tail vein. PET/CT scanning was completed using a VECTor4CT scanner (MILabs, Utrecht, the Netherlands) for 1 h and was immediately followed by culling, dissection, and gamma counting of selected organs. Tumour tissue was immediately flash frozen in liquid nitrogen and mounted in OCT before producing 10 μm thick sections for autoradiography and H&E staining. Alternatively, frozen tumour tissue was macerated and lysed in RIPA buffer for western blot analysis (full details available in the supporting information). Reconstruction of both CT and PET images was performed with the MILabs reconstruction analysis using a γ-ray energy window of 467–571 keV (background weight 2.5%), 0.8 mm^3 voxel size, 8 subsets, and 5 iterations using the manufacturer’s SROSEM reconstruction type. PET images were each registered to CT, attenuation corrected, calibrated by imaging a phantom containing a fluorine-18 standard solution, and analysed using PMod software package (version 3.807, PMOD Technologies).

ATM [5] = biological target: T1, ATM (Homo sapiens, UniProt Q13315); assay: Western blot of pATM, pKAP1 and pCHK2 in irradiated H1299 shGFP cells; format: cell-based; settings: irradiated (4 Gy) H1299 shGFP knockdown cells, inhibitor 1 h before irradiation, relative to DMSO control
T1 construct: endogenous in cells; host or cells: H1299 shGFP and shATM cells
T1 sequence (Q13315 whole entry): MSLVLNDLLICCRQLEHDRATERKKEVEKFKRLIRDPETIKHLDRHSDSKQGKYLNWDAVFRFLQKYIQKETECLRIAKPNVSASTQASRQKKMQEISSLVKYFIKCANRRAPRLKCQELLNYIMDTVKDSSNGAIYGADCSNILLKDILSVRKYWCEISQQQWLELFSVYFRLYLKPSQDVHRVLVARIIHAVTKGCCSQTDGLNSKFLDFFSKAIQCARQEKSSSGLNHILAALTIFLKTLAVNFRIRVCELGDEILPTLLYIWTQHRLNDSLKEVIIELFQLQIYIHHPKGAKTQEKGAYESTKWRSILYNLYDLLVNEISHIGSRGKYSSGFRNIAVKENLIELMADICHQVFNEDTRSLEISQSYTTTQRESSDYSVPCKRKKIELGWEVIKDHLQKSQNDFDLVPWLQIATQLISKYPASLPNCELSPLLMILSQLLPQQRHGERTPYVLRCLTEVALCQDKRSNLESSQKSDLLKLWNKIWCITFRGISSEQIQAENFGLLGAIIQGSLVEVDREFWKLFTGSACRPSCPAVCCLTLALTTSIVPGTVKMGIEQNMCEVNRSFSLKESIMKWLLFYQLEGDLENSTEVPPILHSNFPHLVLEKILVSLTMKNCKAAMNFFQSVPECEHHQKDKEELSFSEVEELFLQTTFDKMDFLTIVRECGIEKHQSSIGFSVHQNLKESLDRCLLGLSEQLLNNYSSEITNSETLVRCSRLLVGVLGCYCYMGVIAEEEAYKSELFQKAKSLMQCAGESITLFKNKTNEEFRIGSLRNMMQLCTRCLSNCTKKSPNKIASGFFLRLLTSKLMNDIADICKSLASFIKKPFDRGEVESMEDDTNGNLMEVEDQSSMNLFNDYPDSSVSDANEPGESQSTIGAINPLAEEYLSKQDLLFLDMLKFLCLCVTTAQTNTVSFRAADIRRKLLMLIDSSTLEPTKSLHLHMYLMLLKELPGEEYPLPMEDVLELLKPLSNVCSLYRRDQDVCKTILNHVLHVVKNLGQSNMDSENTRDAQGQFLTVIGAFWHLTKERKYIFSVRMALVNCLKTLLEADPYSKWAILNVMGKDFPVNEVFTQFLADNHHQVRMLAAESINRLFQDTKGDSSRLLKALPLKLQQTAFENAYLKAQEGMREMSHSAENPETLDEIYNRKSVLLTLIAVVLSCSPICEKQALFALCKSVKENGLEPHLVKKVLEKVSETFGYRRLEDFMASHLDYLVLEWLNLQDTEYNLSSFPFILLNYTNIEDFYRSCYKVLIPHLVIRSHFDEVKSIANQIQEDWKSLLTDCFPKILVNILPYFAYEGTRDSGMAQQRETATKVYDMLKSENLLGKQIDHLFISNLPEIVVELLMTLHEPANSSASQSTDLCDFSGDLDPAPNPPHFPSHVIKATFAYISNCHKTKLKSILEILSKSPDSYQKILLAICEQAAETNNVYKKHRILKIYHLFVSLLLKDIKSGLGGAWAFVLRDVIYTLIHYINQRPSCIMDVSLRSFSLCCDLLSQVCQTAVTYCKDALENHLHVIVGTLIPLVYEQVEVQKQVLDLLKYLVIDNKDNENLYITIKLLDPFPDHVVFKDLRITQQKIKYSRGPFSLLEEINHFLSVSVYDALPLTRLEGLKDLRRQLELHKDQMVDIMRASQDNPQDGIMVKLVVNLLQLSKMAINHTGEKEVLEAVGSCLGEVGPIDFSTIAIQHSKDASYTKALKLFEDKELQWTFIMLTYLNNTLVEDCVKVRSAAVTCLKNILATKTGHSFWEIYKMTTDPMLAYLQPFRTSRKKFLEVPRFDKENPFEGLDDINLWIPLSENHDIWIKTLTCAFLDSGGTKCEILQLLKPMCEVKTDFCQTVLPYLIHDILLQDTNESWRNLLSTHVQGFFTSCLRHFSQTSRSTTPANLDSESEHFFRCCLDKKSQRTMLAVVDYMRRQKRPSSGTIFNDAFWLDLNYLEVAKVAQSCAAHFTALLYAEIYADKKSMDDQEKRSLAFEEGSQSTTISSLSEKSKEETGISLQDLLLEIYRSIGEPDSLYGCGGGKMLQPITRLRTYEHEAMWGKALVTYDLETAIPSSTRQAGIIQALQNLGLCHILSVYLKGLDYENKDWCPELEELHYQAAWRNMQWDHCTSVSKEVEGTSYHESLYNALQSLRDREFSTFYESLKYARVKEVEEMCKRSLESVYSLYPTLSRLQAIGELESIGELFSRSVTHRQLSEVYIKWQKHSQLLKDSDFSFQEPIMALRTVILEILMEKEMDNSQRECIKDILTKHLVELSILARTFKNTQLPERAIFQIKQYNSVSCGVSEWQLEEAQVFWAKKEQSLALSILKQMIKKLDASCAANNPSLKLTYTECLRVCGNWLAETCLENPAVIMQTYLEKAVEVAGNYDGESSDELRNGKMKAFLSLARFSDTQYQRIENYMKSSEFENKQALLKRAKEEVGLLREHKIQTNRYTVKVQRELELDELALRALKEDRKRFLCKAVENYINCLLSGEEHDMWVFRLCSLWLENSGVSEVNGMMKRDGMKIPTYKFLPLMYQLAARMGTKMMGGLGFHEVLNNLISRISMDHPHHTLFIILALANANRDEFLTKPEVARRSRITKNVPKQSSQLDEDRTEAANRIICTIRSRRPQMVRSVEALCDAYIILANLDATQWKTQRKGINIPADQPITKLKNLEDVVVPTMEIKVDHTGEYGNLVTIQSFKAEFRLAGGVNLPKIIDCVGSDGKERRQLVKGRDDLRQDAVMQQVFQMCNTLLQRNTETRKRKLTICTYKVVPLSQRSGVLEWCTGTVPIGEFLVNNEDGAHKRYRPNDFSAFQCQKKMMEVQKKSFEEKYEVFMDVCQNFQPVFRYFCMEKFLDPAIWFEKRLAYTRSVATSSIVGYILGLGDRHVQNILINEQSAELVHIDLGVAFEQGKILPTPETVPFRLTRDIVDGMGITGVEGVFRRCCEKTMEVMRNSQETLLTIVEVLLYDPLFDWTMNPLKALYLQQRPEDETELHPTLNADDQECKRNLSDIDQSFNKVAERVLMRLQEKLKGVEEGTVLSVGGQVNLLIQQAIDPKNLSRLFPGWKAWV
Method: as §1

ATM [6] = biological target: T1, ATM; assay: Blocking of [18F]1 cell-associated activity by non-radioactive ATM inhibitors; format: cell-based; settings: for effect on [18F]1 cell-associated activity at high molar excess: 1000 nM inhibitor, compared to DMSO control; for effect on [18F]1 cell-associated activity at lower inhibitor concentrations: 0.1–10 nM inhibitor
Method: as §1

murine ATM = biological target: T2, murine ATM (Mus musculus, UniProt Q62388); assay: Western blot of ATM inhibition in CT26 murine colorectal cancer cells; format: cell-based
T2 construct: endogenous in cells; host or cells: CT26 murine colorectal cancer cells
Method: Western blot analysis was performed to compare the total ATM expression between cell models, in addition to expression of phospho-ATM^S1981 (pATM), phospho-KAP1^S824 (pKAP1), and phospho-CHK2^T68 (pCHK2) expression to assess the effect of irradiation and ATM inhibition on ATM catalytic activity. Cells were irradiated (4 Gy; 0.75 Gy/min) or sham-irradiated and incubated at 37 °C for 1 h before harvesting cells for lysis and blotting (full details in supporting information). Where required, inhibitors were added to cells at the stated concentration from DMSO stock solutions (reaching no greater than 10% DMSO final concentration) with incubation for 1 h prior to irradiation/sham-irradiation. The following antibodies and dilutions were used in this work: phospho-ATM S1981 (ab81292, 1:5000, Abcam); phospho-KAP1 S824 (ab133440, 1:10,000, Abcam); phospho-CHK2 T68 (#2661, 1:1000, Cell Signalling Technologies); Total ATM (ab32420, clone [Y170], 1:500, Abcam); Total KAP1 (ab10483, 1:1000, Abcam); Total CHK2 (05-649, 1:1000, Merck Millipore); HRP-conjugated Tubulin (ab197740, clone [YL1/2], 1:4000, Abcam); HRP-conjugated β-Actin (clone 13E5, 1:1000, Cell Signalling Technologies), HRP-conjugated anti-rabbit secondary (HAF008, 1:1000, R&D Systems); and HRP-conjugated anti-mouse secondary (HAF007, 1:1000, R&D Systems). […]

ATM [7] = system: ATM; design: method as in earlier work; settings: cited from earlier work
ATR = system: ATR; design: method as in earlier work; settings: read-out: Cellular IC50 by catalytic inhibition: ATR; cited from earlier work
PI3K = system: PI3K; design: method as in earlier work; settings: read-out: Cellular IC50 by catalytic inhibition: PI3K; cited from earlier work
mTOR = system: mTOR; design: method as in earlier work; settings: read-out: Cellular IC50 by catalytic inhibition: mTOR; cited from earlier work
[8] = design: method as in PMID 29938225, PMID 33123736; settings: phase I clinical trial; cited from earlier work
[9] = BALB/c nu/nu mice, intravenous, 1 h

SMILES: CC(C)n1c(=O)n(C)c2cnc3ccc(-c4ccc(OCCCN5CCCCC5)nc4[N+](=O)[O-])cc3c21 [compound 2]
pATM expression and downstream targets pKAP1 and pCHK2, western blot (ATM [5]): decrease in pATM expression

SMILES: CC(C)n1c(=O)n([11CH3])c2cnc3cc(F)c(-c4ccc(OCCCN5CCCCC5)nc4)cc3c21 [[^11C]AZD1390]
blood–brain barrier penetration by PET [8]: ability to cross the blood–brain barrier

SMILES: C[C@@H]1CN(CC(=O)Nc2ccc3c(c2)Cc2cccc(-c4cc(=O)cc(N5CCOCC5)o4)c2S3)C[C@H](C)O1 [KU60019, reference compound]
pATM expression and downstream targets pKAP1 and pCHK2, western blot (ATM [5]): decrease in pATM expression | blocking of [18F]1 cell-associated activity (ATM [6]; increasing concentrations of blocking agent, H1299 shATM and shGFP cells, 1 h tracer incubation): significant blocking

Now from value to compound, other results behind:

clearance route ([3]; wild type and ATM-null C57BL/6 mice): hepatobiliary clearance | uptake in H1299 tumour xenografts (shATM) [4, 9]: 0.35 ± 0.10 %ID/g | uptake in H1299 tumour xenografts (shGFP) [4, 9]: 0.35 ± 0.14 %ID/g | uptake in H1299 tumour xenografts (wild type) [4, 9]: 0.38 ± 0.12 %ID/g | tumour uptake, range ([4]; after 1 h, all tumour types): 0.13–0.90 %ID/g | clearance route ([4]; xenograft-bearing BALB/c nu/nu mice): hepatobiliary clearance
SMILES: CC(C)n1c(=O)n(C)c2cnc3ccc(-c4ccc(OCCCN5CCCCC5)nc4[18F])cc3c21 [[^18F]1]
cell-associated activity (uptake) [1]: increase in cell-associated activity over 1 h followed by a plateau | decrease in cell-associated activity (retention) [2]: approximately 50% | difference in uptake between wild type and ATM-null mice ([3]; C57BL/6 mice): Significant differences in uptake between the two mice were only observed in the kidneys and liver

pATM expression and downstream targets pKAP1 and pCHK2, western blot (ATM [5]): decrease in pATM expression | effect on [18F]1 cell-associated activity at high molar excess (ATM [6]): increase in cell-associated activity | effect on [18F]1 cell-associated activity at lower inhibitor concentrations (ATM [6]; H1299 shATM and shGFP cells): initial blocking effect | murine ATM inhibition and reduction of downstream target pKAP1, western blot (murine ATM): murine ATM inhibition
SMILES: CC(C)n1c(=O)n(C)c2cnc3ccc(-c4ccc(OCCCN5CCCCC5)nc4F)cc3c21 [compound 1]
IC50 (ATM [7]; read-out: Cellular IC50 by catalytic inhibition: ATM): < 0.00043 µM | IC50 value of ATM inhibition (ATM [7]; reported value): sub-nM | IC50 (ATR): > 30 µM | IC50 (PI3K): 5.75 µM | IC50 (mTOR): > 5.19 µM

pATM expression and downstream targets pKAP1 and pCHK2, western blot (ATM [5]): decrease in pATM expression | effect on [18F]1 cell-associated activity at high molar excess (ATM [6]): increase in cell-associated activity | effect on [18F]1 cell-associated activity at lower inhibitor concentrations (ATM [6]; H1299 shATM and shGFP cells): initial blocking effect
SMILES: CC(C)n1c(=O)n(C)c2cnc3cc(F)c(-c4ccc(OCCCN5CCCCC5)nc4)cc3c21 [AZD1390]
